Source: patent publication US20230405134A1, “NOVEL PROTAC CHIMERIC COMPOUND, AND PHARMACEUTICAL COMPOSITION COMPRISING SAME FOR PREVENTING, AMELIORATING, OR TREATING DISEASES THROUGH TARGET PROTEIN DEGRADATION” (POSTECH RESEARCH AND BUSINESS DEVELOPMENT FOUNDATION, priority 2020, published 2023)
Where a SMILES comes first, the peptide text is derived from it. Bridges are numbered along the chain shown (N, C = ends). [ ]: non-standard residue; d: D form. Cha = N[C@@H](CC1CCCCC1)C(=O)O; S5 = C=CCCC[C@](C)(N)C(=O)O

T1: UBR box (residues 113-194) in the UBR1 E3 ubiquitin ligase of S. cerevisiae (S. cerevisiae, UniProt P19812 113-194)
T1 construct: range 113-194; Expressed and purified as in Nat; Struct; Mol. Biol. 2010, 17, 1175-1181
T1 sequence (looked up): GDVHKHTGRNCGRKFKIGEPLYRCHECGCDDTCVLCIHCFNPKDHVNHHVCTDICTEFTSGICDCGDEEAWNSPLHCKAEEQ

B1: RLAA tetrapeptide (peptide)
peptide: RLAA
notes: also called RLAA peptide; N-degron tetrapeptide

What was measured:
CSF-1 = CSF-1 mRNA level by RT-qPCR in MDA-MB-231 cells; format: cell-based, human; settings: 12 hours
From the text: (§1) The pharmacological effects on SRC-1 dependent signal transmission were explored using the previously discovered SRC-1 degrading substance. The SRC-1 is overexpressed in various cancers and plays a pivotal role in increasing cell migration and invasion by regulating the expression of related genes. Therefore, when treated with ND1-YL2, an SRC-1 degrading substance, the expression of genes stimulated by SRC-1, such as colony stimulating factor-1 (CSF-1), a gene encoding the cytokine CSF-1 that induces cell differentiation and migration, will be suppressed. To confirm this, MDA-MB-231 cells were treated with DMSO and various concentrations of ND1-YL2, YL2 or N-degron tetrapeptide for 12 hours, and the mRNA level of CSF-1 was normalized to 18S level. Confirmation was made using quantitative real-time polymerase chain reaction (RT-qPCR). MDA-MB-231 cells were seeded at 2×10^5 cells per well. After 24 hours, compounds (YL2, RLAA or ND1-YL2) were treated in Opti-MEM medium for 12 hours. Subsequently, general mRNA isolation was performed using TRI reagent (Takara), and total mRNA was isolated from the cells. The absorbance of total mRNA was measured with a Tecan F200 Nanophotometer, and reverse transcription was performed using AccuPower RocketScript Cycle RT PreMix (Bioneer). Quantitative real-time PCR for CSF-1, E-Cadherin and 18S was performed using a StepOnePlus Real-Time PCR System and SYBR Green mix (Applied Biosystems) according to the manufacturer's manual.

E-cadherin = E-cadherin mRNA level by RT-qPCR in MDA-MB-231 cells; format: cell-based, human; settings: 12 hours
From the text: as §1
In addition, the effect of the ND1-YL2 on the expression of E-cadherin, a tumor suppressor gene that plays an important role in cell-cell adhesion, was tested. Since SRC-1 protein is known to suppress the E-cadherin expression, the ND1-YL2 will upregulate the E-cadherin by degrading SRC-1.

MDA-MB-231 cells [1] = experiment: Gap closure migration assay; format: cell-based, human; settings: 20 μM, 72 hours
Procedure: Based on the results that the SRC-1 degradation effectively affects the transcription mediated by SRC-1 (FIGS. 18A and 18B), it was predicted that ND1-YL2 would exert an inhibitory effect on downstream signaling pathways such as increased cancer cell migration and invasion. To test this, we first performed a gap closure migration assay using an invasive MDA-MB-231 cell line. MDA-MB-231 cells (70 μL of 4×10^5 cells/mL) were seeded in culture insert 2 wells (ibidi, 80209) pre-inserted into p-dishes (ibidi) under the conditions of 37° C. and 5% CO2. The culture insert 2 wells was gently removed with sterile tweezers. The cells were treated with DMSO, YL2 (20 […]), RLAA (20 μM) or ND1-YL2 (20 μM) in Opti-MEM medium for 72 hours. Images were obtained by a camera (Olympus) attached to an optical microscope. The cells were grown in the culture insert wells, and the inserts were removed to create intercellular gaps inside the wells. Subsequently, after treated with DMSO, YL2, RLAA peptide or ND1-YL2, the cells were cultured for 72 hours and the degree of cell migration was observed. The cell migration was quantified by analyzing the images of cells filling the gap.

MDA-MB-231 cells [2] = experiment: Matrigel invasion assay; format: cell-based, human; settings: 24 hours; ND1-YL2 various concentrations, YL2 and RLAA 20 μM
Procedure: The inhibition of cell migration may be due to the inhibitory effect of ND1-YL2 on cell growth. In order to exclude this possibility, the invasive ability of cells treated with ND1-YL2 was confirmed. A Corning Matrigel insert (Corning) was placed in a 24-well plate. After hydrating the Matrigel insert with an FBS-free DMEM medium for 2 hours in a CO2 incubator, MDA-MB-231 cells were cultured in the Matrigel insert (4×10^4 cells/insert) with 125 μL of Opti-MEM medium. Another 125 μl of compound containing Opti-MEM medium was added to the insert. The lower chamber was filled with 500 μL of DMEM medium containing 10% FBS. The Matrigel chamber was cultured for 24 hours under the conditions of 37° C. and 5% CO2. The cell culture media of the upper and lower chambers were removed and washed three times with cold DPBS. Non-invasive cells were then removed with a cotton swab. The bottom of the chamber was fixed with 4% formaldehyde for 10 minutes at room temperature, and stained with Hoechst 33342 (5 μg/mL) for 5 minutes in a CO2 incubator. After washed with DPBS, images of infiltrated cells were obtained by a fluorescence microscope. The percentage of the invasive cells was calculated using the product manual. MDA-MB-231 cells were treated with various concentrations of ND1-YL2, N-degron (20 μM) or YL2 (20 μM). After 24 hours, images of the invaded cells were obtained by a fluorescence microscope, and the number of invaded cells was quantified through the images. […] The inhibitory activity of ND1-YL2 on cell migration and invasion is in good agreement with previous SRC-1 knockdown experiments.

SRC-1 = SRC-1 (Homo sapiens, UniProt Q15788); experiment: SRC-1 expression level in MDA-MB-231 cells by Western blot; format: cell-based; set-up: endogenous in cells; host or cells: MDA-MB-231; settings: 20 μM, 12 hours
[3] = molecular target: T1, UBR box (residues 113-194) in the UBR1 …; experiment: competitive fluorescence polarization on the UBR box (as the sentence implies; the origin of the value is not stated)

Chain of SRC-1 (Q15788 whole entry, the tested form may be a part): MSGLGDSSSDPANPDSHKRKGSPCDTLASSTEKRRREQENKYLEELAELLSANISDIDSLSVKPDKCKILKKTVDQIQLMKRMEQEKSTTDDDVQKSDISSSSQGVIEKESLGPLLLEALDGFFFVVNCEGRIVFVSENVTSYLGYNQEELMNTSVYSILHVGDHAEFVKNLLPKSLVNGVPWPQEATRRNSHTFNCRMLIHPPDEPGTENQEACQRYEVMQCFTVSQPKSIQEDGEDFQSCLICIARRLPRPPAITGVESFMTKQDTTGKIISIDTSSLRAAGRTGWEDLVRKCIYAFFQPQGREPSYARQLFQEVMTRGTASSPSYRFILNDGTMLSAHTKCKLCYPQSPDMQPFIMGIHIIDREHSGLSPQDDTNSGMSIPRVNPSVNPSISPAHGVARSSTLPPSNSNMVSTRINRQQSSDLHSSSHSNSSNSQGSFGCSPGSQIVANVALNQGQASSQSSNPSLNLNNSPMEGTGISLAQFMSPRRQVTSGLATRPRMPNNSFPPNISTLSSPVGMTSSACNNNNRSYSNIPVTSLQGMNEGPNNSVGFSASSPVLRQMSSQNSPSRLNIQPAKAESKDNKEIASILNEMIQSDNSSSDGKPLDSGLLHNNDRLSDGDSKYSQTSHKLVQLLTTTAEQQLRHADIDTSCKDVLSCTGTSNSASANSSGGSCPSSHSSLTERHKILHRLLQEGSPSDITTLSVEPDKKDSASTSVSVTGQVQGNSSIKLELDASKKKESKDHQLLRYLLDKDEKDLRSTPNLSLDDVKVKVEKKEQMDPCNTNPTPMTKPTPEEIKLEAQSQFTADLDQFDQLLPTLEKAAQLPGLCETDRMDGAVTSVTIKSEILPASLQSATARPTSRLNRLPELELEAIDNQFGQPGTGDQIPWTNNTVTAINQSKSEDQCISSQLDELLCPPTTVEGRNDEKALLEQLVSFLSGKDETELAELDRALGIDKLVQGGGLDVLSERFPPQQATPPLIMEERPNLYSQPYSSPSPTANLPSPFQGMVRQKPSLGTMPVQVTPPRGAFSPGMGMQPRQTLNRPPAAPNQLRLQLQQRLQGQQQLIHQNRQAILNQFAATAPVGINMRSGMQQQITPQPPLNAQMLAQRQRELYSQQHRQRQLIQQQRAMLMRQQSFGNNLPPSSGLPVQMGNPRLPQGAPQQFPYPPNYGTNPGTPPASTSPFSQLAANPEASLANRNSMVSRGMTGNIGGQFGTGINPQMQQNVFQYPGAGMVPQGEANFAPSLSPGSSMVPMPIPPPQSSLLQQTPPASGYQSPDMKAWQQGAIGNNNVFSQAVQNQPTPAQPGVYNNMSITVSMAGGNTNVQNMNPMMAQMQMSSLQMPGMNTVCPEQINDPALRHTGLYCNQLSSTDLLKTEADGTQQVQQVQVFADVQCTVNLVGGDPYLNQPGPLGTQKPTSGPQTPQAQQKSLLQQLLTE

Molecule	Effect on CSF-1 expression (mRNA normalized to 18S) (CSF-1)	Effect on E-cadherin expression (mRNA) (E-cadherin)	Existing gaps maintained (cell migration) (MDA-MB-231 cells [1])	Effect on cell invasion (MDA-MB-231 cells [2])	SRC-1 degradation, single agents compared (SRC-1)	Ki [3] [µM]
CC(C)C[C@H](NC(=O)[C@@H](N)CCCNC(=N)N)C(=O)N[C@@H](C)C(=O)N[C@@H](C)C(N)=O [RLAA] (H-RLAA-NH2)	did not significantly affect	no effect	gaps were completely filled	no significant effect	Neither YL2 nor RLAA tetrapeptide per se had any effect	–
CC(C)C[C@@H]1NC(=O)[C@H](CCCCN)NC(=O)[C@@](C)(NC(=O)[C@H](CC(C)C)NC(=O)[C@H](CC(=O)O)NC(=O)[C@H](CCC(N)=O)NC(=O)[C@H](CCC(=O)O)NC(=O)[C@@H](NC(=O)[C@@H]2CCCN2C(=O)[C@@H]2CCCN2C(=O)[C@H](CC(C)C)NC(=O)[C@@H](N)CC(C)C)[C@@H](C)O)CCC/C=C\CCC[C@@](C)(C(=O)N[C@@H](Cc2ccc(O)cc2)C(N)=O)NC(=O)[C@H](CC2CCCCC2)NC1=O [YL2] (H-LLPPTEQDL[S5]KL[Cha][S5]Y-NH2; staple (Z) 10-14; N-terminus and C-terminus assumed)	did not significantly affect	no effect	gaps were completely filled	no significant effect	Neither YL2 nor RLAA tetrapeptide per se had any effect	–
B1	–	–	–	–	–	4.2
